The record followed here is patent US8748426B2, “Inhibitors of diacylglycerol acyl transferase” (Piramal Enterprises Limited, priority 2009, dated 2014).

One assay deals with T1, hDGAT1 (Homo sapiens, UniProt O75907).
T1 sequence (O75907 1-488): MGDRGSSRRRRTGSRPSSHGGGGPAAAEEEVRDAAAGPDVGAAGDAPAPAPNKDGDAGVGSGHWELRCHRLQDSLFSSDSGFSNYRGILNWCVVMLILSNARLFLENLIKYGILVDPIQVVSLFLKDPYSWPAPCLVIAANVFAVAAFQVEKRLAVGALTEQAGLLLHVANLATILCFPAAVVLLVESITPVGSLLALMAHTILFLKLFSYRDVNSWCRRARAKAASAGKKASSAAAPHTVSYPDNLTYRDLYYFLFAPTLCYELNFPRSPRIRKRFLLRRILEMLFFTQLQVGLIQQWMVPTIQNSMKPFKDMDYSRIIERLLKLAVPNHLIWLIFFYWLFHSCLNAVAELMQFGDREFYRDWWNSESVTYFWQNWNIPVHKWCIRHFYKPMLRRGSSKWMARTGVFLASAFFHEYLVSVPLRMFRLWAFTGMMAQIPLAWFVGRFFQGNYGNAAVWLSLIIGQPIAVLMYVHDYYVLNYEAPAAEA
Put plainly: In-vitro DGAT1 assay (14C oleoyl CoA, hDGAT1 microsomes from Sf9 cells). The conditions noted are these: at 1 μM.
Regarding “3-(1-Oxo-6-(4-(4-(trifluoromethyl)benzamido)phenyl)isoindolin-2-yl)cyclo hexanecarboxylic acid [Example 551]”, the “% Inhibition of hDGAT1” value is on record as “++ (>50% Inhibition)”. Same read-out and setting: in the case of `Cc1ccc(NC(=O)Nc2ccc(-c3ccc4c(c3)C(=O)N([C@H](C(=O)O)C(C)C)C4)cc2)cc1` [Example 24] it was “+ (10-50% Inhibition)”; in that of `CC(C)[C@@H](C(=O)O)N1Cc2ccc(-c3ccc(NC(=S)Nc4ccccc4C(F)(F)F)cc3)cc2C1=O` [Example 66], “++ (>50% Inhibition)”.

Staying with this assay, now noted: read-out: % Inhibition of hDGAT1.
For orientation: inhibition means how much of the control response was suppressed. For `CC(C)[C@@H](C(=O)O)N1Cc2ccc(-c3ccc(NC(=O)Nc4ccc(F)cc4)cc3)cc2C1=O` [Example 8, (S)-2-(6-(4-(3-(4-Fluorophenyl)ureido)phenyl)-1-oxoisoindolin-2-yl)-3-methyl butanoic acid], the inhibition at 1 µM fell in the range of 10 to 50%. Turning to `CC(C)[C@@H](C(=O)O)N1Cc2ccc(-c3ccc(NC(=O)Nc4ccc(F)cc4F)cc3)cc2C1=O` [Example 10, (S)-2-(6-(4-(3-(2,4-Difluorophenyl)ureido)phenyl)-1-oxoisoindolin-2-yl)-3-methylbutanoic acid], the inhibition at 1 µM lay within 10 to 50%.

`CC(C)[C@@H](C(=O)O)N1Cc2ccc(-c3ccc(NC(=O)Nc4ccccc4F)cc3)cc2C1=O` [Example 12, (S)-2-(6-(4-(3-(2-Fluorophenyl)ureido)phenyl)-1-oxoisoindolin-2-yl)-3-methyl butanoic acid]: the inhibition at 1 µM was 10 to 50%. For the compound `CC(C)[C@@H](C(=O)O)N1Cc2ccc(-c3ccc(NC(=O)Nc4cccc(F)c4)cc3)cc2C1=O` [Example 14, (S)-2-(6-(4-(3-(3-Fluorophenyl)ureido)phenyl)-1-oxoisoindolin-2-yl)-3-methyl butanoic acid], the inhibition at 1 µM is 10 to 50%. On to `CC(C)[C@@H](C(=O)O)N1Cc2ccc(-c3ccc(NC(=O)Nc4ccccc4)cc3)cc2C1=O` [Example 16, (S)-3-Methyl-2-(1-oxo-6-(4-(3-phenylureido)phenyl)isoindolin-2-yl)butanoic acid], for which the inhibition at 1 µM fell in the range of 10 to 50%. Regarding `CC(C)[C@@H](C(=O)O)N1Cc2ccc(-c3ccc(NC(=O)NCc4ccccc4)cc3)cc2C1=O` [Example 18, (S)-2-(6-(4-(3-Benzylureido)phenyl)-1-oxoisoindolin-2-yl)-3-methylbutanoic acid], the inhibition at 1 µM was in the range of 10 to 50%. As for `CC(C)[C@@H](C(=O)O)N1Cc2ccc(-c3ccc(NC(=O)Nc4c(F)cccc4F)cc3)cc2C1=O` [Example 20, (S)-2-(6-(4-(3-(2,6-Difluorophenyl)ureido)phenyl)-1-oxoisoindolin-2-yl)-3-methylbutanoic acid], the inhibition at 1 µM is 10 to 50%. With `Cc1cccc(NC(=O)Nc2ccc(-c3ccc4c(c3)C(=O)N([C@H](C(=O)O)C(C)C)C4)cc2)c1` [Example 22, (S)-3-Methyl-2-(1-oxo-6-(4-(3-m-tolylureido)phenyl)isoindolin-2-yl)butanoic acid], the inhibition at 1 µM is 10 to 50%. `COc1cccc(NC(=O)Nc2ccc(-c3ccc4c(c3)C(=O)N([C@H](C(=O)O)C(C)C)C4)cc2)c1` [Example 26, (S)-2-(6-(4-(3-(3-Methoxyphenyl)ureido)phenyl)-1-oxoisoindolin-2-yl)-3-methyl butanoic acid]: the inhibition at 1 µM was 10 to 50%. Regarding `COc1ccc(NC(=O)Nc2ccc(-c3ccc4c(c3)C(=O)N([C@H](C(=O)O)C(C)C)C4)cc2)cc1` [Example 28, (S)-2-(6-(4-(3-(4-Methoxyphenyl)ureido)phenyl)-1-oxoisoindolin-2-yl)-3-methylbutanoic acid], the inhibition at 1 µM fell in the range of 10 to 50%. The same measure, in the same setting: for `CC(C)[C@@H](C(=O)O)N1Cc2ccc(-c3ccc(NC(=O)Nc4cc(F)cc(F)c4)cc3)cc2C1=O` [Example 30, (S)-2-(6-(4-(3-(3,5-Difluorophenyl)ureido)phenyl)-1-oxoisoindolin-2-yl)-3-methylbutanoic acid] the value was 10 to 50%; for `CC(C)[C@@H](C(=O)O)N1Cc2ccc(-c3ccc(NC(=O)Nc4ccc(F)c(F)c4)cc3)cc2C1=O` [Example 32, (S)-2-(6-(4-(3-(3,4-Difluorophenyl)ureido)phenyl)-1-oxoisoindolin-2-yl)-3-methylbutanoic acid], 10 to 50%. Consider `CC(C)[C@@H](C(=O)O)N1Cc2ccc(-c3ccc(NC(=O)NC4CCCCC4)cc3)cc2C1=O` [Example 34, (S)-2-(6-(4-(3-Cyclohexylureido)phenyl)-1-oxoisoindolin-2-yl)-3-methylbutanoic acid], for which the inhibition at 1 µM was above 50%.

Turning to `CC(C)[C@@H](C(=O)O)N1Cc2ccc(-c3ccc(NC(=O)Nc4ccc(C(F)(F)F)cc4)cc3)cc2C1=O` [Example 36, (S)-3-Methyl-2-(1-oxo-6-(4-(3-(4-(trifluoromethyl)phenyl)ureido)phenyl)isoindolin-2-yl)butanoic acid], the inhibition at 1 µM is above 50%. The same measure, in the same setting: in the case of `CC(C)[C@@H](C(=O)O)N1Cc2ccc(-c3ccc(NC(=O)Nc4cccc(C(F)(F)F)c4)cc3)cc2C1=O` [Example 38, (S)-3-Methyl-2-(1-oxo-6-(4-(3-(3-(trifluoromethyl)phenyl)ureido)phenyl)isoindolin-2-yl)butanoic acid] it was above 50%.

For the compound `CC(C)[C@@H](C(=O)O)N1Cc2ccc(-c3ccc(NC(=O)Nc4ccc(C#N)cc4)cc3)cc2C1=O` [Example 40, (S)-2-(6-(4-(3-(4-Cyanophenyl)ureido)phenyl)-1-oxoisoindolin-2-yl)-3-methyl butanoic acid], the inhibition at 1 µM was above 50%. Turning to `CC(C)[C@@H](C(=O)O)N1Cc2ccc(-c3ccc(NC(=O)Nc4cccc(C#N)c4)cc3)cc2C1=O` [Example 42, (S)-2-(6-(4-(3-(3-Cyanophenyl)ureido)phenyl)-1-oxoisoindolin-2-yl)-3-methyl butanoic acid], the inhibition at 1 µM was above 50%.

Turning to `CC(C)[C@@H](C(=O)O)N1Cc2ccc(-c3ccc(NC(=O)Nc4ccc(Cl)cc4Oc4ccccc4)cc3)cc2C1=O` [Example 44, (S)-2-(6-(4-(3-(4-Chloro-2-phenoxyphenyl)ureido)phenyl)-1-oxoisoindolin-2-yl)-3-methylbutanoic acid], the inhibition at 1 µM was above 50%. Still for that read-out and setting: in the case of `CC(C)[C@@H](C(=O)O)N1Cc2ccc(-c3ccc(NC(=O)Nc4cc(Cl)ccc4Oc4ccccc4)cc3)cc2C1=O` [Example 46, (S)-2-(6-(4-(3-(5-Chloro-2-phenoxyphenyl)ureido)phenyl)-1-oxoisoindolin-2-yl)-3-methylbutanoic acid] it was above 50%.

As for `CC(C)[C@@H](C(=O)O)N1Cc2ccc(-c3ccc(NC(=O)Nc4ccccc4Oc4ccccc4)cc3)cc2C1=O` [Example 48, (S)-3-Methyl-2-(1-oxo-6-(4-(3-(2-phenoxyphenyl)ureido)phenyl)isoindolin-2-yl)butanoic acid], the inhibition at 1 µM is above 50%.

Regarding `CC(C)[C@@H](C(=O)O)N1Cc2ccc(-c3ccc(NC(=O)Nc4ccc(Oc5ccccc5)cc4)cc3)cc2C1=O` [Example 50, (S)-3-Methyl-2-(1-oxo-6-(4-(3-(4-phenoxyphenyl)ureido)phenyl)isoindolin-2-yl)butanoic acid], the inhibition at 1 µM was above 50%. On to `CC(C)[C@@H](C(=O)O)N1Cc2ccc(-c3ccc(NC(=S)Nc4ccccc4F)cc3)cc2C1=O` [Example 52, (S)-2-(6-(4-(3-(2-Fluorophenyl)thioureido)phenyl)-1-oxoisoindolin-2-yl)-3-methylbutanoic acid], for which the inhibition at 1 µM was 10 to 50%. As to `Cc1ccc(NC(=S)Nc2ccc(-c3ccc4c(c3)C(=O)N([C@H](C(=O)O)C(C)C)C4)cc2)cc1` [Example 54, (S)-3-Methyl-2-(1-oxo-6-(4-(3-p-tolylthioureido)phenyl)isoindolin-2-yl)butanoic acid], the inhibition at 1 µM fell in the range of 10 to 50%. For `CC(C)[C@@H](C(=O)O)N1Cc2ccc(-c3ccc(NC(=S)Nc4cccc(F)c4)cc3)cc2C1=O` [Example 56, (S)-2-(6-(4-(3-(3-Fluorophenyl)thioureido)phenyl)-1-oxoisoindolin-2-yl)-3-methylbutanoic acid], the inhibition at 1 µM fell in the range of 10 to 50%. Turning to `COc1ccc(NC(=S)Nc2ccc(-c3ccc4c(c3)C(=O)N([C@H](C(=O)O)C(C)C)C4)cc2)cc1` [Example 58, (S)-2-(6-(4-(3-(4-Methoxyphenyl)thioureido)phenyl)-1-oxoisoindolin-2-yl)-3-methylbutanoic acid], the inhibition at 1 µM is above 50%. On the same count and under the same terms, for `COc1cccc(NC(=S)Nc2ccc(-c3ccc4c(c3)C(=O)N([C@H](C(=O)O)C(C)C)C4)cc2)c1` [Example 60, (S)-2-(6-(4-(3-(3-Methoxyphenyl)thioureido)phenyl)-1-oxoisoindolin-2-yl)-3-methylbutanoic acid] the value was above 50%. Consider `CC(C)[C@@H](C(=O)O)N1Cc2ccc(-c3ccc(NC(=S)Nc4ccc(Cl)cc4)cc3)cc2C1=O` [Example 62, (S)-2-(6-(4-(3-(4-Chlorophenyl)thioureido)phenyl)-1-oxoisoindolin-2-yl)-3-methyl butanoic acid], for which the inhibition at 1 µM lay in the range of 10 to 50%.

On to `CC(C)[C@@H](C(=O)O)N1Cc2ccc(-c3ccc(NC(=S)Nc4cccc(Cl)c4)cc3)cc2C1=O` [Example 64, (S)-2-(6-(4-(3-(3-Chlorophenyl)thioureido)phenyl)-1-oxoisoindolin-2-yl)-3-methyl butanoic acid], for which the inhibition at 1 µM lay in the range of 10 to 50%. Take `CC(C)[C@@H](C(=O)O)N1Cc2ccc(-c3ccc(NC(=S)Nc4ccc(C#N)cc4)cc3)cc2C1=O` [Example 68, (S)-2-(6-(4-(3-(4-Cyanophenyl)thioureido)phenyl)-1-oxoisoindolin-2-yl)-3-methyl butanoic acid]: the inhibition at 1 µM is above 50%.
